Data reported in paper PMC3837394 (Advances in Protein Chemistry and Structural Biology, 2012).

Tests used:
Assay in all cases: colorimetric ELISA-like DNMT activity assay
Type in all cases: biochemical
full-length human DNMT1 [1] = biological target: T1, full-length human DNMT1 (Homo sapiens, UniProt P26358); conditions: read-out: % inhibition at 100 μM
full-length human DNMT1 [2] = biological target: T1, full-length human DNMT1
murine Dnmt3a = murine Dnmt3a (Mus musculus, UniProt O88508)

T1 sequence (P26358 whole entry): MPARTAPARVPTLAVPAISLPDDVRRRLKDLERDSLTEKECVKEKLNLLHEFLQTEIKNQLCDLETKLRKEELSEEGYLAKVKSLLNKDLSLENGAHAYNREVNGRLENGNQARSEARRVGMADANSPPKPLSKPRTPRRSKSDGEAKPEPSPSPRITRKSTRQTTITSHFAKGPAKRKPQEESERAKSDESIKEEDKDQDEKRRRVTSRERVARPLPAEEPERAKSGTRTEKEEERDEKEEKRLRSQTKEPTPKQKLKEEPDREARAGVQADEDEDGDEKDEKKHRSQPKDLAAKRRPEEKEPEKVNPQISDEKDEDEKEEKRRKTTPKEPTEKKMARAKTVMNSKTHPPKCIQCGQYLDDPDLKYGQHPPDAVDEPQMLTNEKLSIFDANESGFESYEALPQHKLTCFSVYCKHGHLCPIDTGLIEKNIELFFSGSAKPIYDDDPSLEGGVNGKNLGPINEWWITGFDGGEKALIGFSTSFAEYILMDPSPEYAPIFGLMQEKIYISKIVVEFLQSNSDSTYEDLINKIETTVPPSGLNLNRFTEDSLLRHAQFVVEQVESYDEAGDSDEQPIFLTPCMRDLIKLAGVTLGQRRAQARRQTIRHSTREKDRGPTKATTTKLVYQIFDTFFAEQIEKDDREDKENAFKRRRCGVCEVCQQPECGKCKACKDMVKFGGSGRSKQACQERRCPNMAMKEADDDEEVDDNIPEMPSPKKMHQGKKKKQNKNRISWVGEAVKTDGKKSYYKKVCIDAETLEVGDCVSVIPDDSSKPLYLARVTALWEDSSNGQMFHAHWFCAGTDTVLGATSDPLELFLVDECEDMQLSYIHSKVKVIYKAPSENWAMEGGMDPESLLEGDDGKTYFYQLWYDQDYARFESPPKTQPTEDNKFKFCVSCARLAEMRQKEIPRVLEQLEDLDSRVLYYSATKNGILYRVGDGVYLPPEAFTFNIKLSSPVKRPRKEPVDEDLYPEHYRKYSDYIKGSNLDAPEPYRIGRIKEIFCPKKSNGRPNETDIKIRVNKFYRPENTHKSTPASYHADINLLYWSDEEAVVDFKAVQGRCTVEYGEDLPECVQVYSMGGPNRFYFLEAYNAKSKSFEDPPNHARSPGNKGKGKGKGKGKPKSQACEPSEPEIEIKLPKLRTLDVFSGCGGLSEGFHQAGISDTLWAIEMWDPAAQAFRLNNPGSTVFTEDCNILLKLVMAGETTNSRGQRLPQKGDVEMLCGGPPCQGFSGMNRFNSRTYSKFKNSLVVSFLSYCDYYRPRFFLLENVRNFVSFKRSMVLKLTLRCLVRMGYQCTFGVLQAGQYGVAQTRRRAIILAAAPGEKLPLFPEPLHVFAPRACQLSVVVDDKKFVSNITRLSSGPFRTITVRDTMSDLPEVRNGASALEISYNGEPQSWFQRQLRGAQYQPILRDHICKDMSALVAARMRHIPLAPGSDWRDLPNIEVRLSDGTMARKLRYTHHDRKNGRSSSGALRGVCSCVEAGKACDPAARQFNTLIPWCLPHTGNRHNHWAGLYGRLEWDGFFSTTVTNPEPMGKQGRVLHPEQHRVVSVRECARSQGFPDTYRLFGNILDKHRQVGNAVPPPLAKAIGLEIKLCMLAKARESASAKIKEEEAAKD

Row | SMILES | inhibition at 100 µM (full-length human DNMT1 [1]) [%] | IC50 (full-length human DNMT1 [2]) [nM] | IC50 (murine Dnmt3a) [nM]
1 | O=C(O)[C@H](Cc1c[nH]c2ccccc12)N1C(=O)c2ccccc2C1=O [RG108] | 11 |  | 
2 | O=C(O)C1=CC(=C(c2ccc(O)c(C(=O)O)c2)c2ccc(O)c(C(=O)O)c2)C=CC1=O [aurintricarboxylic acid] |  | 680 | 1400
3 | O=C(O[C@@H]1Cc2c(O)cc(O)cc2O[C@@H]1c1cc(O)c(O)c(O)c1)c1cc(O)c(O)c(O)c1 [EGCG] |  | 700 | 
